Eight substances from patent publication US20060040327A1, “Methods of screening proteins” (priority 2004, published 2006) can be followed below.

The nature of series [1]: FRET fluorescent response of E. coli expressing DsRed2-GGBP-acGFP to glucose. To be noted: 22 mM glucose; excitation at 475 nm; after accounting for volume displacement. The class given is cell-based. As for the experimental part: The expression of DsRed2-GGBP-acGFP in E. coli was optimized by first inducing with IPTG and then monitoring the fluorescence produced by the DsRed2 and acGFP proteins. Initially, the protein is expressed for 2-6 hours at 37 C and then transferred to a 25 C shaker for up to 6 days. A 1 ml sample of fermentation broth is removed every 24 hrs during the 25 C expression and examined for fluorescence. […] After accounting for volume displacement, there was a 1-4% increase in DsRed2 emission at 22 mM glucose after excitation at 475 nm due to FRET.

Series [2] is described as follows: Stability of binding activity of labeled protein on storage, fluorescent response to glucose. The class given is physicochemical. The procedure:
(§1) Combining the preceding mutations provided E149C,A213R,L238S, a protein with glucose binding affinity that is within the physiological range. […] As an illustrative example, the stability of this protein's binding activity was determined by storing solutions of the labeled protein at 25° C. and at 37° C. in a dark environment, and testing aliquots periodically for fluorescent response to glucose. The fluorescence increase for E149C,A213R,L238S upon binding glucose retained 92% of the original fluorescence increase after 3 months at 25° C., and 88% after 3 months at 37° C. Relative stability of the protein's tertiary structure was determined using CD (circular dichroism) spectroscopy of the protein in solution. Spectra were collected in 10 mM PBS, pH 7.4. Each spectrum was the average of 3 accumulations. Thermal denaturation was monitored at 220 nm using a temperature slope of 15° C. per hour over a temperature range of 15-75° C. The Tm (temperature where 50% of the protein was denatured) was 47° C. without glucose and 50° C. in the presence of glucose (see FIG. 2).

Series [3] in a line: Thermal denaturation by CD spectroscopy at 220 nm. It counts as physicochemical. To be noted: 10 mM PBS, pH 7.4, CD 220 nm.
Excerpt: FIG. 2 depicts a plot of the CD spectra ellipticity at 220 nm wavelength of a fluorescently labeled periplasmic binding protein versus temperature. The plot for the protein without ligand is the solid line and the dotted line is the same protein in the presence of its ligand (glucose).
as §1

The nature of series [4]: Fluorescent response and glucose binding curve of IANBD-labeled GGBP mutants. To be noted: IANBD-labeled protein; for Kd: read-out: glucose affinity; for increase in fluorescence on binding glucose: fluorescent response to 100 mM glucose. The procedure: GGBP protein from the above examples, expressed from E. coli strain Sg13009 following standard protocols (Qiagen) may be further purified. For example, after induction, bacteria were lysed and purified by IMAC using Talon cobalt^2+ resin (Clontech). The purified protein solution was filtered through 100 kDa and 10 kDa cutoff filters (Millipore). […] The yield from the purification was 10 mg/l and the activity of the protein is stable for at least six months. The selected mutants were expressed, purified, and IANBD-labeled to determine their ability to produce a fluorescent response to 100 mM glucose. Mutant E149C,A213R and E149C,N256R produced a 6- and 2-fold increase in fluorescence on binding glucose, respectively. […] Mutant E149C,L238S was identified through an analogous procedure.
as §1

Series [5] is described as follows: Fluorescence assay of NBD-labeled MBP mutants, maltotetraitol. The class given is binding. To be noted: ligand maltotetraitol; for QF: ratio of fluorescence intensity with / without ligand; for Kd: read-out: Affinity. As for the experimental part:
(§2) For the mutants selected by FACS, a fluorescence assay was used to determine their maltose affinity. The mutants were labeled by fluorophore coupling of N,N′-dimethyl-N-(iodoacetyl)-N′-(7-nitrobenz-2-oxa-1,3-diazol-4-yl)ethylenediamine (IANBD amide, Molecular Probes) to a cysteine site created by mutagenesis at position 95 (Gilardi et al. (1997) Protein Eng. 10(5):479-86). Briefly, purified protein (1-2 mg/ml) was treated with dithiothreitol for 30 min and then a 10-fold molar excess of freshly prepared solution of IANBD was added. The protein and dye were gently mixed at RT for 4 hrs before the unreacted dye was removed by Nap-5 (Amersham) size-exclusion column chromatography. The efficiency of the coupling was determined by absorbance.
(§3) QF is defined as the ratio of fluorescence intensity in the presence of ligand, divided by the ratio of fluorescence intensity in the absence of ligand.

The nature of series [6]: Fluorescence assay of NBD-labeled MBP mutants, maltose. The class given is binding. To be noted: ligand Maltose; for QF: ratio of fluorescence intensity with / without ligand; for Kd: read-out: Affinity. The procedure:
as §2, §3

Series [7] is described as follows: Fluorescence assay of NBD-labeled MBP mutants, maltoside. The class given is binding. To be noted: ligand maltoside; ratio of fluorescence intensity with / without ligand. The procedure: as §2, §3
Series [8] can be described thus: Fluorescence assay of NBD-labeled MBP mutants, maltotetraose. To be noted: ligand maltotetraose; for QF: ratio of fluorescence intensity with / without ligand; for Kd: read-out: Affinity. It counts as binding. The procedure:
as §2, §3

On to DsRed2-GGBP-acGFP, for which, in series [1], the “increase in DsRed2 emission due to FRET” value is 1-4%.
With “E149C,A213R,L238S: GGBP mutant combining the preceding mutations”, the “fluorescence increase upon binding glucose retained, of the original fluorescence increase” value is given as 92% in series [2] (labeled protein solution stored 3 months at 25° C. in the dark) and 88% in series [2] (labeled protein solution stored 3 months at 37° C. in the dark). Also, the “Tm (temperature where 50% of the protein was denatured)” value in series [3] (in the presence of glucose) was determined as 50 °C; in series [3] (without glucose) it was 47 °C. Moreover, the Kd in series [4] (binding curve) came out at 12000 µM. Further, the “increase in fluorescence on binding glucose” value (shortened to “increase in fluorescence”) in series [4] is on record as above 6 fold.
Consider “E149C,A213R: GGBP mutant binding protein identified by the periplasmic screening assay”, for which, in series [4] (binding curve), the Kd came to 1000 µM. For the same substance, the “increase in fluorescence” value in series [4] was determined as 6 fold.
As for “E149C,L238S: GGBP mutant binding protein identified through an analogous procedure”, the Kd in series [4] (binding curve) came out at 80 µM. Further, the “increase in fluorescence” value in series [4] was determined as 6 fold.
“E149C,N256R: GGBP mutant selected by screening, eliminated from further testing”: the glucose affinity entry in series [4] (binding curve) is recorded as “did not reach saturation at 100 mM glucose”. Further, the “increase in fluorescence” value in series [4] is given as 2 fold.
For the substance MBP(D14L,K15R,D95C)-NBD [SC-1], the QF in series [5] came to 2.8; in series [6] it was 3.4; in series [7], 5.5; in series [8], 2.1. Further, the Kd was determined as 3.7 µM in series [5], 15 µM in series [6] and 3.6 µM in series [8].
In the case of MBP(D14V, K15V, D95C)-NBD [SC-2], the Kd in series [5] was determined as 11 µM; in series [6], 220 µM; in series [8], 40 µM.
As to “MBP(D95C)-NBD [CONTROL, reference compound]”, the QF in series [5] stood at 1.2; in series [6], 5.3; in series [7] it was 5.5; in series [8], 5.2. Further, the values for the Kd in series [5], in series [6] and in series [8] were 4.5 µM, 1 µM and 0.2 µM, respectively.
